How the values were obtained:
MC38 cells = experiment: MC38 mouse model of colon adenocarcinoma: tumor volume and survival; format: in vivo; conditions: MC38 tumor-bearing C57BL/6 mice
Experimental: Animals: Six to ten week-old female C57BL/6 mice were used in the studies as supplied by Beijing Vital River Laboratory Animal Technology Co., Ltd. Mice received food and water ad libitum. All animals were maintained in a controlled environment with 20-26° C. temperature, 40-70% humidity, and a light/dark cycle of 12 hours each. Up to 5 mice were kept in each cage. The study protocol and procedures involving the care and use of animals were reviewed and approved by the Institutional Animal Care and Use Committee (IACUC) to ensure compliance with the regulations of the Association for Assessment and Accreditation of Laboratory Animal Care (AAALAC).
Reagents and Antibodies: Anti-mouse PD-1 antibody (BioXcell; Lot No./Cat. No./clone: 665418F1/BP0146/RMP1-14) was supplied at a concentration of 7.83 mg/mL and maintained at 4° C. […]
Tumor volumes were measured on Day 10, Day 14, Day 17, Day 21, Day 23, Day 25, Day 28, Day 30, Day 32, Day 35, Day 37, Day 39, Day 42, Day 44, Day 46, Day 49 and Day 51 in two dimensions using a caliper, and the volume was expressed in mm^3 using the formula: V=0.5 a×b^2 where a and b are the length and width of the tumor, respectively.
Statistical Analysis: Data related to tumor volume are presented as mean and the standard error of the mean (SEM). […] Percentage tumor reduction was assessed on Day 23 by using the below formula: […]

[1] = tested on: pro-inflammatory cytokines and chemokines, including IL-18; experiment: Cytokines and chemokines in the serum of treated animals; format: in vivo, mice; conditions: serum of animals treated with talabostat mesylate alone; data not shown
Experimental: Various cytokines and chemokines in the serum of animals treated with talabostat mesylate alone was also evaluated. […] IL-18 bridges the innate and adaptive immune systems through induction of IFNγ and OX40 (CD134) signaling pathway (Maxwell et al., Journal of Immunology, 2006, 177:234).

## talabostat mesylate
MC38 cells; same dosing as Table 4, vehicle control median survival 30 days
  median survival: 35 days
MC38 cells; talabostat mesylate 20 μg/mouse p.o. QD, anti-OX40 Ab 10 mg/kg i.p. twice weekly, anti-PD-1 Ab 5 mg/kg i.p. twice weekly, treatment from Day 11, Day 23
  % Tumor Reduction compared to vehicle control on Day 23: 8.16%
[1]
  pro-inflammatory cytokines and chemokines in serum, including IL-18: stimulated

Reference: patent US20220025061A1, “COMBINATION THERAPIES FOR TREATING DISEASE USING AN INNATE IMMUNITY MODIFIER AND AN OX40 AGONIST” (BioXcel Therapeutics, Inc., priority 2018, published 2022)
